The values below are quoted from earlier work in patent US7179486B1, “Process for preparing sustained release tablets” (Nostrum Pharmaceuticals, Inc., priority 1997, dated 2007).

Take `O=C(O)c1cccnc1` [niacin, Niacin]: the “dosage release within a one hour period causing a flushing response in most subjects” value is “more than 75 mg”.
